Data: ChEMBL document CHEMBL1201862, “PubChem BioAssay data set” (2004)
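Dose response: 5 concentrations. Exposure: 48 h. Format: 96-well plates. Endpoint: linear interpolation; highest concentration if not reached. GI50 marks 50% less growth.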 Activity calls are given as the source filed them. No stated cut-off is given here; in the data, active = GI50 up to about 1.1 µM and inactive = higher.

Legend:
Test in all cases: NCI tumour cell line growth inhibition, 48 h
[1] = system: KM12
[2] = system: DMS-273
[3] = system: SK-MEL-28
[4] = system: SF-268
[5] = system: SF-295
[6] = system: KM-20L2
[7] = system: U-251
[8] = system: NCI-H23
[9] = system: HOP-92
[10] = system: COLO 205
[11] = system: SK-OV-3
[12] = system: UACC-257
[13] = system: TK-10
[14] = system: IGROV-1
[15] = system: DMS-114
[16] = system: ACHN
[17] = system: UO-31
[18] = system: RXF 631
[19] = system: UACC-62
[20] = system: SK-MEL-2
[21] = system: CAKI-1
[22] = system: HCT-15
[23] = system: NCI-H460
[24] = system: K562
[25] = system: HOP-62
[26] = system: M14
[27] = system: SW-620
[28] = system: SF-539
[29] = system: A549
[30] = system: CCRF-CEM
[31] = system: OVCAR-5
[32] = system: M19-MEL
[33] = system: HOP-18
[34] = system: XF498
[35] = system: NCI-H226
[36] = system: SNB-75
[37] = system: EKVX
[38] = system: HL-60
[39] = system: LOX IMVI
[40] = system: OVCAR-4
[41] = system: SK-MEL-5
[42] = system: A498
[43] = system: RXF 393
[44] = system: DLD-1
[45] = system: OVCAR-8
[46] = system: SN12C
[47] = system: MOLT-4
[48] = system: SNB-19
[49] = system: LXFL 529
[50] = system: Malme-3M
[51] = system: HCT-116
[52] = system: SNB-78
[53] = system: HT-29
[54] = system: OVCAR-3
[55] = system: NCI-H522
[56] = system: HCC 2998
[57] = system: PC-3
[58] = system: MDA-MB-435
[59] = system: MDA-MB-231
[60] = system: RPMI-8226
[61] = system: MCF7
[62] = system: T47D
[63] = system: MDA-N
[64] = system: DU-145
[65] = system: 786-0
[66] = system: NCI/ADR-RES
[67] = system: Hs-578T
[68] = system: SR

## CCOC(=O)C(=O)NCCCN1CCOCC1
[1]
  GI50: > 100 µM (inactive)
[2]
  GI50: > 100 µM (inactive)
[3]
  GI50: > 100 µM (inactive)
[4]
  GI50: > 100 µM (inactive)
[5]
  GI50: > 100 µM (inactive)
[6]
  GI50: > 100 µM (inactive)
[7]
  GI50: > 100 µM (inactive)
[8]
  GI50: > 100 µM (inactive)
[9]
  GI50: > 100 µM (inactive)
[10]
  GI50: > 100 µM (inactive)
[11]
  GI50: > 100 µM (inactive)
[12]
  GI50: > 100 µM (inactive)
[13]
  GI50: > 100 µM (inactive)
[14]
  GI50: > 100 µM (inactive)
[15]
  GI50: > 100 µM (inactive)
[16]
  GI50: > 100 µM (inactive)
[17]
  GI50: > 100 µM (inactive)
[18]
  GI50: > 100 µM (inactive)
[19]
  GI50: > 100 µM (inactive)
[20]
  GI50: > 100 µM (inactive)
[21]
  GI50: > 100 µM (inactive)
[22]
  GI50: > 100 µM
[23]
  GI50: > 100 µM (inactive)
[24]
  GI50: > 100 µM (inactive)
[25]
  GI50: > 100 µM (inactive)
[26]
  GI50: > 100 µM (inactive)
[27]
  GI50: > 100 µM (inactive)
[28]
  GI50: > 100 µM (inactive)
[29]
  GI50: > 100 µM (inactive)
[30]
  GI50: > 100 µM (inactive)
[31]
  GI50: > 100 µM (inactive)
[32]
  GI50: > 100 µM (inactive)
[33]
  GI50: > 100 µM (inactive)
[34]
  GI50: > 100 µM (inactive)
[35]
  GI50: > 100 µM (inactive)
[36]
  GI50: > 100 µM (inactive)
[37]
  GI50: > 100 µM (inactive)
[38]
  GI50: > 100 µM (inactive)
[39]
  GI50: > 100 µM (inactive)
[40]
  GI50: > 100 µM (inactive)
[41]
  GI50: > 100 µM (inactive)
[42]
  GI50: > 100 µM (inactive)
[43]
  GI50: > 100 µM (inactive)
[44]
  GI50: > 100 µM (inactive)
[45]
  GI50: > 100 µM (inactive)
[46]
  GI50: > 100 µM (inactive)
[47]
  GI50: > 100 µM (inactive)
[48]
  GI50: > 100 µM (inactive)
[49]
  GI50: > 100 µM (inactive)
[50]
  GI50: > 100 µM (inactive)
[51]
  GI50: > 100 µM (inactive)
[52]
  GI50: > 100 µM (inactive)
[53]
  GI50: > 100 µM (inactive)
[54]
  GI50: > 100 µM (inactive)
[55]
  GI50: > 100 µM (inactive)
[56]
  GI50: > 100 µM (inactive)

## N=C(Nc1nc(-c2ccccn2)cc2ccccc12)c1ccccn1
[57]
  GI50: < 0.0129 µM (active)
[1]
  GI50: 0.049 µM (active)
[2]
  GI50: 0.00512 µM (active)
[3]
  GI50: 0.252 µM (active)
[58]
  GI50: 0.12 µM (active)
[4]
  GI50: 0.065 µM (active)
[5]
  GI50: 0.326 µM (active)
[7]
  GI50: 0.0295 µM (active)
[8]
  GI50: 0.0156 µM (active)
[9]
  GI50: 0.0233 µM (active)
[59]
  GI50: < 0.0179 µM (active)
[10]
  GI50: 0.011 µM (active)
[11]
  GI50: 0.0308 µM (active)
[12]
  GI50: < 0.0172 µM (active)
[13]
  GI50: 0.249 µM (active)
[60]
  GI50: 0.00201 µM (active)
[14]
  GI50: 0.0322 µM (active)
[15]
  GI50: 0.00108 µM (active)
[61]
  GI50: 0.0106 µM (active)
[62]
  GI50: 0.0244 µM (active)
[16]
  GI50: < 0.0145 µM (active)
[17]
  GI50: 0.0918 µM (active)
[63]
  GI50: 0.272 µM (active)
[18]
  GI50: 0.01 µM (active)
[19]
  GI50: 0.0336 µM (active)
[64]
  GI50: 0.0673 µM (active)
[21]
  GI50: < 0.0123 µM (active)
[22]
  GI50: 0.0149 µM
[23]
  GI50: 0.0857 µM (active)
[24]
  GI50: 0.0108 µM (active)
[25]
  GI50: 0.0789 µM (active)
[26]
  GI50: 0.0229 µM (active)
[27]
  GI50: 0.0182 µM (active)
[28]
  GI50: 0.097 µM (active)
[29]
  GI50: 0.0733 µM (active)
[30]
  GI50: 0.01 µM (active)
[65]
  GI50: 0.0317 µM (active)
[31]
  GI50: 0.0148 µM (active)
[32]
  GI50: 0.232 µM (active)
[33]
  GI50: 0.301 µM (active)
[34]
  GI50: 0.00407 µM (active)
[35]
  GI50: 0.106 µM (active)
[36]
  GI50: 0.361 µM (active)
[37]
  GI50: 0.0221 µM (active)
[38]
  GI50: 0.01 µM (active)
[39]
  GI50: 0.0266 µM (active)
[40]
  GI50: < 0.0561 µM (active)
[41]
  GI50: 0.0817 µM (active)
[42]
  GI50: 0.233 µM (active)
[43]
  GI50: 0.0168 µM (active)
[44]
  GI50: 0.0019 µM (active)
[45]
  GI50: < 0.0179 µM (active)
[66]
  GI50: < 0.0185 µM (active)
[46]
  GI50: 0.0252 µM (active)
[47]
  GI50: 0.01 µM (active)
[67]
  GI50: 1.61 µM (inactive)
[48]
  GI50: 0.834 µM (active)
[49]
  GI50: 0.00242 µM (active)
[50]
  GI50: 0.157 µM (active)
[51]
  GI50: 0.01 µM (active)
[52]
  GI50: 3.33 µM (inactive)
[53]
  GI50: 0.01 µM (active)
[54]
  GI50: 0.01 µM (active)
[55]
  GI50: 0.0398 µM (active)
[56]
  GI50: 0.117 µM (active)

## CCCOP1(=O)C=C(C)C(Cl)=C(C)C1 (stereo unspecified)
[1]
  GI50: 19.1 µM (inactive)
[2]
  GI50: 14.6 µM (inactive)
[3]
  GI50: 18.3 µM (inactive)
[4]
  GI50: 14.6 µM (inactive)
[5]
  GI50: 25.2 µM (inactive)
[6]
  GI50: 29.3 µM (inactive)
[7]
  GI50: 23.2 µM (inactive)
[8]
  GI50: 16.9 µM (inactive)
[9]
  GI50: 18.4 µM (inactive)
[10]
  GI50: 11.2 µM (inactive)
[11]
  GI50: 38.3 µM (inactive)
[12]
  GI50: 17.7 µM (inactive)
[13]
  GI50: 23.1 µM (inactive)
[60]
  GI50: 12 µM (inactive)
[14]
  GI50: 34.6 µM (inactive)
[15]
  GI50: 19.7 µM (inactive)
[16]
  GI50: 21.4 µM (inactive)
[17]
  GI50: 45.3 µM (inactive)
[18]
  GI50: 37.1 µM (inactive)
[19]
  GI50: 15 µM (inactive)
[20]
  GI50: 6.11 µM (inactive)
[22]
  GI50: 20 µM
[23]
  GI50: 31.2 µM (inactive)
[68]
  GI50: 17.9 µM (inactive)
[24]
  GI50: 24.7 µM (inactive)
[25]
  GI50: 42.4 µM (inactive)
[26]
  GI50: 15.3 µM (inactive)
[27]
  GI50: 17.1 µM (inactive)
[28]
  GI50: 25.7 µM (inactive)
[29]
  GI50: 21.6 µM (inactive)
[30]
  GI50: 15 µM (inactive)
[65]
  GI50: 16.9 µM (inactive)
[31]
  GI50: 29.8 µM (inactive)
[32]
  GI50: 21 µM (inactive)
[33]
  GI50: 29.4 µM (inactive)
[34]
  GI50: 16.5 µM (inactive)
[35]
  GI50: 20.9 µM (inactive)
[36]
  GI50: 22.6 µM (inactive)
[37]
  GI50: 74.3 µM (inactive)
[38]
  GI50: 22.3 µM (inactive)
[39]
  GI50: 13.3 µM (inactive)
[40]
  GI50: 26.9 µM (inactive)
[41]
  GI50: 18.7 µM (inactive)
[43]
  GI50: 18 µM (inactive)
[44]
  GI50: 22.8 µM (inactive)
[45]
  GI50: 27 µM (inactive)
[46]
  GI50: 20.2 µM (inactive)
[47]
  GI50: 17.6 µM (inactive)
[48]
  GI50: > 100 µM (inactive)
[49]
  GI50: 20.7 µM (inactive)
[51]
  GI50: 18 µM (inactive)
[53]
  GI50: 22.1 µM (inactive)
[54]
  GI50: 25.2 µM (inactive)
[55]
  GI50: 15 µM (inactive)
[56]
  GI50: 54.7 µM (inactive)
